Patent US7410974B2, “Halogenated Quinazolinyl nitrofurans as antibacterial agents” (Ulysses Pharmaceutical Products, Inc., priority 2003, dated 2008)
Values after ≈ are worked out from the molar mass of the structure shown. Read-outs that look alike come from different tables or passages of the source.

How the values were obtained:
E. faecium ATCC 35667 = assay: MIC broth microdilution (NCCLS); format: cell-based, Enterococcus faecium; conditions: Enterococcus faecium, ATCC35667, E. faecium ATCC 35667; read-out: MIC
Description: (§1) Minimal Inhibitory Concentration (MIC) Determination. Bacteria (primary strain panel, TABLE 1). Susceptibility tests were performed following the recommendations from the National Committee for Clinical Standards (NCCLS). The MICs were determined by a broth microdilution technique using a final volume of 100 μl of cation-adjusted Mueller Hinton Broth (MHBCA) and a bacterial inoculum of 10^5-10^6 Colony Forming Units (CFU)/ml. The inocula were verified and precisely determined by applying 10-μl drops of 10-fold dilutions onto Triptic Soy Agar plates. The CFU were counted after an incubation of 24 h at 35° C. Any experiment showing an inoculum that was more or less than 10^5-10^6 CFU/ml was rejected. Control antibiotics and test compounds were prepared at a concentration equivalent to 2-fold the highest desired final concentration. Compounds were then diluted directly in the 96-well microtiter plates by serial 2-fold dilutions using a multichannel pipette. Microtiter plates were incubated during 24 h at 35° C. and growth was recorded by using a microtiterplate reader at 650 nm as well as by visual observation. The MIC was defined as the lowest concentration of compound yielding no visible growth. […] Fastidious bacteria. The medium used for Listeria monocytogenes, Neisseria meningitidis, and Campylobacter jejuni was MHBCA containing 2% laked horse blood. The medium used for Haemophilus influenzae and Branhamella (Moraxella) catarrhalis was HTM as recommended by the NCCLS. Cultures of these fastidious bacteria were incubated at 35° C. in a 5% CO2 atmosphere. […] The medium used for Bacteroides fragilis was Wilkins Chalgren broth and growth was allowed under an anaerobic atmosphere at 35° C. for 48 hours.

E. coli ATCC 25922 [1] = assay: MIC broth microdilution (NCCLS); format: cell-based, Escherichia coli; conditions: Escherichia coli, ATCC25922, E. coli ATCC 25922 (Reference); read-out: MIC
Description: as §1

B. fragilis ATCC 25285 = assay: MIC broth microdilution (NCCLS), anaerobic; format: cell-based; conditions: Bacteroides fragilis
Description: as §1

C. jejuni ATCC 33291 = assay: MIC broth microdilution (NCCLS), fastidious bacteria; format: cell-based; conditions: Campylobacter jejuni, ATCC33291
Description: as §1

[2] = system: L. monocytogenes ATCC 13932; assay: as above; format: cell-based; conditions: Listeria monocytogenes, ATCC13932, MHBCA with 2% laked horse blood, 5% CO2
Description: as §1

E. faecalis ATCC 29212 = assay: MIC broth microdilution (NCCLS); format: cell-based, Enterococcus faecalis; conditions: Enterococcus faecalis, ATCC29212; E. faecalis ATCC 29212; read-out: MIC
Description: as §1

[3] = system: S. saprophyticus ATCC 15305; assay: MIC broth microdilution (NCCLS); format: cell-based, Staphylococcus saprophyticus; conditions: Staphylococcus saprophyticus, ATCC15305; S. saprophyticus ATCC 15305; read-out: MIC
Description: as §1

S. aureus MRSA COL = assay: MIC broth microdilution (NCCLS); format: cell-based, Staphylococcus aureus; conditions: S. aureus MRSA COL
Description: as §1, with “hours. […]” for “hours.”

S. aureus ATCC 29213 = assay: MIC broth microdilution (NCCLS); format: cell-based, Staphylococcus aureus; conditions: Staphylococcus aureus, ATCC29213; S. aureus ATCC 29213; read-out: MIC
Description: as §1

[4] = system: S. epidermidis ATCC 12228; assay: MIC broth microdilution (NCCLS); format: cell-based, Staphylococcus epidermidis; conditions: Staphylococcus epidermidis, ATCC12228; S. epidermidis ATCC 12228; read-out: MIC
Description: as §1

[5] = system: S. saprophyticus ATCC 15305; assay: Minimal Bactericidal Concentration (MBC); format: cell-based; conditions: Staphylococcus saprophyticus, ATCC15305; S. saprophyticus ATCC 15305; 99.9% killing; read-out: MBC
Description: (§2) Minimal Bactericidal Concentration (MBC). After the microtiter plates were read for the determination of the MIC, a 10-μl sample of each clear well (at least 5 wells without visible growth) was applied onto TSA plates for viable counts determination.
(§3) Petri dishes were incubated at 35° C. for exactly 24 h and bacterial colonies were counted.

E. coli ATCC 25922 [6] = assay: Minimal Bactericidal Concentration (MBC); format: cell-based; conditions: Escherichia coli, ATCC25922, 99.9% killing
Description: as §2, §3

E. faecium VanA = assay: MIC broth microdilution, antibiotic resistant strain panel; format: cell-based; conditions: Enterococcus faecium; multi-resistant E. faecium VanA; read-out: MIC
Description: as §1
(§4) Finally, compounds were also tested against populations of various clinical strains (antibiotic resistant strain panel, TABLE 1).

B. catarrhalis ATCC 8176 = assay: MIC broth microdilution (NCCLS), fastidious bacteria; format: cell-based, Branhamella (Moraxella) catarrhalis; conditions: Moraxella catarrhalis, ATCC8176, HTM, 5% CO2
Description: as §1

Solubility in water = format: physicochemical
Description: Solubility of Compounds V and XV. The extent of solubility of compounds was evaluated in water.

MRSA strain Sa224c = assay: MIC broth microdilution, antibiotic resistant strain panel; format: cell-based, Staphylococcus aureus; conditions: Staphylococcus aureus; multi-resistant MRSA strain Sa224c; read-out: MIC
Description: as §1, §4

MRSA strain Sa220c = assay: as above; format: cell-based, Staphylococcus aureus; conditions: Staphylococcus aureus; multi-resistant MRSA strain Sa220c; read-out: MIC
Description: as §1, §4

MRSA strain Sa253c = assay: as above; format: cell-based, Staphylococcus aureus; conditions: Staphylococcus aureus
Description: as §1, §4

MRSA strain Sa228c = assay: as above; format: cell-based, Staphylococcus aureus; conditions: Staphylococcus aureus; multi-resistant MRSA strain Sa228c; read-out: MIC
Description: as §1, §4

MRSA strain Sa234c = assay: as above; format: cell-based, Staphylococcus aureus; conditions: Staphylococcus aureus; multi-resistant MRSA strain Sa234c; read-out: MIC
Description: as §1, §4

MRSA strain Sa249c = assay: as above; format: cell-based, Staphylococcus aureus; conditions: Staphylococcus aureus; multi-resistant MRSA strain Sa249c; read-out: MIC
Description: as §1, §4

MRSA strain Sa248c = assay: as above; format: cell-based, Staphylococcus aureus; conditions: Staphylococcus aureus; multi-resistant MRSA strain Sa248c; read-out: MIC
Description: as §1, §4

MRSA strain Sa211c = assay: as above; format: cell-based, Staphylococcus aureus; conditions: Staphylococcus aureus; multi-resistant MRSA strain Sa211c; read-out: MIC
Description: as §1, §4

MRSA strain Sa212c = assay: as above; format: cell-based, Staphylococcus aureus; conditions: Staphylococcus aureus; multi-resistant MRSA strain Sa212c; read-out: MIC
Description: as §1, §4

H. influenzae ATCC 49247 = assay: MIC broth microdilution (NCCLS), fastidious bacteria; format: cell-based; conditions: Haemophilus influenzae, ATCC49247, HTM, 5% CO2
Description: as §1

H. influenzae ATCC 49766 = assay: as above; format: cell-based; conditions: Haemophilus influenzae, ATCC49766, HTM, 5% CO2
Description: as §1

M. smegmatis ATCC 19420 = assay: as above; format: cell-based, Mycobacterium smegmatis; conditions: Mycolicibacterium smegmatis, ATCC19420, read after 48 hours
Description: as §1

[7] = system: Y. enterocolytica ATCC 23715; assay: MIC broth microdilution (NCCLS); format: cell-based, Yersinia enterocolytica; conditions: Yersinia, ATCC23715, read-out: MIC
Description: as §1

A. baumannii ATCC 19606 = assay: MIC broth microdilution (NCCLS); format: cell-based, Acinetobacter baumannii; conditions: Acinetobacter baumannii, ATCC19606, read-out: MIC
Description: as §1

[8] = ATCC25285, B. fragilis ATCC 25285, Wilkins Chalgren broth, anaerobic, 48 hours, read-out: MIC
[9] = Staphylococcus aureus, MRSA, read-out: MIC

Row | Structure (SMILES) | MIC (E. faecium ATCC 35667) [µg/mL] | MIC (E. coli ATCC 25922 [1]) [µg/mL] | MIC (B. fragilis ATCC 25285; [8]) [µg/mL] | MIC [2] [µg/mL] | MIC (E. faecalis ATCC 29212) [µg/mL] | MIC [3] [µg/mL] | MIC (S. aureus MRSA COL; [9]) [µg/mL] | MIC (S. aureus ATCC 29213) [µg/mL] | MIC [4] [µg/mL] | MBC [5] [µg/mL] | MBC (E. coli ATCC 25922 [6]) [µg/mL] | MIC (MRSA strain Sa224c) [µg/mL] | MIC (MRSA strain Sa220c) [µg/mL] | MIC (MRSA strain Sa228c) [µg/mL] | MIC (MRSA strain Sa234c) [µg/mL] | MIC (MRSA strain Sa249c) [µg/mL] | MIC (MRSA strain Sa248c) [µg/mL] | MIC (MRSA strain Sa211c) [µg/mL] | MIC (MRSA strain Sa212c) [µg/mL] | MIC (M. smegmatis ATCC 19420) [µg/mL] | also measured
1 | O=C(N[C@H](CO)[C@H](O)c1ccc([N+](=O)[O-])cc1)C(Cl)Cl [Chloramphenicol] | 8 (≈ 24.8 µM) | 4 (≈ 12.4 µM) | 4 (≈ 12.4 µM) | 0.001 (≈ 0.00309 µM) | 8 (≈ 24.8 µM) | 4 to 8 (≈ 12.4 to 24.8 µM) | 8 (≈ 24.8 µM) | 16 (≈ 49.5 µM) | 8 (≈ 24.8 µM) | 16 to 32 (≈ 49.5 to 99 µM) | 16 (≈ 49.5 µM) | – | – | – | – | – | – | – | – | – | MIC (C. jejuni ATCC 33291; C. jejuni ATCC 33291, MHBCA with 2% laked horse blood, 5% CO2, read-out: MIC): 4 µg/mL (≈ 12.4 µM)
2 | CN1CCN(c2cc3nc(C=Cc4ccc([N+](=O)[O-])o4)nc(Nc4ccc(O)cc4)c3cc2F)CC1 [Compound XV, 7-(4-methylpiperazino)-6-fluoro-2-[2-(5-nitro-2-furyl)vinyl]-4-(p-hydroxyanilino)-quinazoline] | 8 (≈ 16.3 µM) | – | 0.5 (≈ 1.02 µM) | 0.5 (≈ 1.02 µM) | 2 to 8 (≈ 4.08 to 16.3 µM) | 2 (≈ 4.08 µM) | 0.5 (≈ 1.02 µM) | 2 (≈ 4.08 µM) | 1 to 2 (≈ 2.04 to 4.08 µM) | – | – | 1 (≈ 2.04 µM) | 0.25 (≈ 0.51 µM) | 2 (≈ 4.08 µM) | 2 (≈ 4.08 µM) | 0.5 (≈ 1.02 µM) | 0.5 (≈ 1.02 µM) | 2 (≈ 4.08 µM) | 4 (≈ 8.16 µM) | 0.25 (≈ 0.51 µM) | MIC (E. faecium VanA): 0.5 µg/mL (≈ 1.02 µM); MIC (B. catarrhalis ATCC 8176): 0.5 µg/mL (≈ 1.02 µM); solubility relative to Compound V (Solubility in water): 4 times; solubility (Solubility in water; read-out: solubility in water (no visible particles)): 1000 µg/mL (≈ 2040 µM); MIC (MRSA strain Sa253c; multi-resistant MRSA strain Sa253c, read-out: MIC): 2 µg/mL (≈ 4.08 µM); MIC (H. influenzae ATCC 49247): 2 µg/mL (≈ 4.08 µM); MIC (H. influenzae ATCC 49766): 2 µg/mL (≈ 4.08 µM)
3 | C[C@@H](O)[C@H]1C(=O)N2C(C(=O)O)=C(SCCN=CN)C[C@H]12 [Imipenem] | 2 (≈ 6.68 µM) | 0.12 (≈ 0.401 µM) | – | – | 0.5 (≈ 1.67 µM) | 0.03 (≈ 0.1 µM) | 16 (≈ 53.4 µM) | 0.015 (≈ 0.0501 µM) | 0.008 to 0.015 (≈ 0.0267 to 0.0501 µM) | 0.03 to 0.06 (≈ 0.1 to 0.2 µM) | – | – | – | – | – | – | – | – | – | – | MIC (B. fragilis ATCC 25285; ATCC25285, 48 h): 0.125 to 0.5 µg/mL (≈ 0.418 to 1.67 µM); MIC (C. jejuni ATCC 33291): 0.125 µg/mL (≈ 0.418 µM); MIC [7]: 0.5 µg/mL (≈ 1.67 µM); MIC (A. baumannii ATCC 19606): 16 µg/mL (≈ 53.4 µM)
4 | CCn1cc(C(=O)O)c(=O)c2cc(F)c(N3CCNCC3)cc21 [Norfloxacin] | 16 (≈ 50.1 µM) | 0.03 (≈ 0.0939 µM) | – | 0.008 (≈ 0.0251 µM) | 4 (≈ 12.5 µM) | 2 (≈ 6.26 µM) | 0.5 to 1 (≈ 1.57 to 3.13 µM) | 1 (≈ 3.13 µM) | 0.5 (≈ 1.57 µM) | 4 (≈ 12.5 µM) | 0.06 (≈ 0.188 µM) | > 32 | > 32 | > 32 | > 32 | 32 (≈ 100 µM) | 32 (≈ 100 µM) | > 32 | > 32 | 2 (≈ 6.26 µM) | MIC (MRSA strain Sa253c; MRSA): > 128 µg/mL; MIC (S. aureus MRSA COL): 1 µg/mL (≈ 3.13 µM)
